Data published in patent publication US8313920B2, “High-throughput assay for evaluating dipeptidyl peptidase I activity” (Janssen Research & Development, LLC, priority 2008, dated 2012).
Residues, ends and D or L forms follow the SMILES beside them. No end group written: not given here. *: point of attachment. AMC = Cc1cc(=O)oc2cc(N*)ccc12

Columns and labels:
Format in all cases: biochemical
[1] = molecular target: T1, dipeptidyl peptidase I (DPPI) (Homo sapiens, UniProt P53634); assay: Rate-based DPPI assay with dipeptide substrate GR-alpha-methylcoumarin, fluorescence, test compounds; details: dipeptide substrate GR-α-methylcoumarin about 10 μM, about 0.4 nM DPPI, compound up to 10 mM
T1 construct: made in house; host or cells: Hi5 insect cells (baculovirus)
T1 sequence (P53634 25-134 limits assumed, species assumed): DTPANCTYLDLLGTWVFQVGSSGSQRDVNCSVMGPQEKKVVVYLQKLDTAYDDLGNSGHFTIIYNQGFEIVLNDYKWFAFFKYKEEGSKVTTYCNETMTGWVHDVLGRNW
T1 sequence (P53634 231-394 limits assumed, species assumed): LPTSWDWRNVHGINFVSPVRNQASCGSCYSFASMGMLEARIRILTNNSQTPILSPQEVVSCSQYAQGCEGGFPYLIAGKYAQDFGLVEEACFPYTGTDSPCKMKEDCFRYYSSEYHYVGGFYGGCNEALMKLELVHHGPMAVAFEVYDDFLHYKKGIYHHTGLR
T1 sequence (P53634 395-463 limits assumed, species assumed): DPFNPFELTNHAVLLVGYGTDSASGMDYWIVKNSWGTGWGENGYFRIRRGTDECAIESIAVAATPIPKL
Procedure: (§1) FIG. 2. Evaluating the DPPI-modulating activity with two test compounds using a dipeptide substrate (A) and using a 20-mer peptide substrate (B). (A) About 0.4 nM of DPP1 and about 10 μM of dipeptide substrate GR-α-methylcoumarin were used in a rate-based format and monitored with fluorescence at EM=460 nm and EX=380 nm. (B) About 2 nM of DPPI and 20 μM of the 20-mer peptide substrate […] (SEQ ID NO:1) were used in a reaction and monitored with a mass spectrometry system. 2-(piperidin-1-ylcarbonyl)phenol is represented by solid squares and 2-(piperidin-1-ylcarbonyl)aniline is represented by solid circles. R^2-values is >0.95.
The DPPI activity was analyzed with either the dipeptide substrate, Gly-Arg, labeled with alpha-methylcoumarin (AMC), or the 20-mer peptide substrate of SEQ ID NO: 1. […] The fluorescence (Ex=380 nm, EM=460 nm) was monitored continuously from about 0 to 10 mins, using a Safire II (Tecan, Switzerland) to determine the DPPI activity. […]
Two fragment compounds, 2-(piperidin-1-ylcarbonyl)phenol and 2-(piperidin-1-ylcarbonyl)aniline were evaluated for their activity to modulate DPPI. […] An aliquot of about 10 μl of the quenched reaction was analyzed by RapidFire™ as described in Examples 3 and 4.

[2] = molecular target: T1, dipeptidyl peptidase I (DPPI); assay: DPPI assay with label-free 20-mer peptide substrate, mass spectrometry (RapidFire, SIM), screening of test compounds; details: for IC50: 20-mer peptide substrate (SEQ ID NO:1) 20 μM, about 2 nM DPPI, 27° C., 60 min, semi-log plot analysis, read-out: IC50 of DPPI inhibition; for effect on DPPI activity in the reaction with the 20-mer substrate: 20-mer peptide substrate, mass spectrometry
Procedure: as §1
When a candidate compound is identified, the IC50 of the DPPI inhibition by the candidate compound is calculated using the formula (II):
[formula] wherein • Si is net substrate turnover signal of sample • So is net substrate turnover signal of positive control • Smin is net am signal of negative control • I is concentration of a candidate compound wherein a positive control is a reaction without any test compound and a negative control is a reaction without DPPI or substrate.
About 2 nM of DPPI was incubated with about 0.5, 1, 2, 4, 8, 16, 32, 64, 90, 128, 150 μM of the 20-mer substrate in the reaction buffer of 50 mM HEPES (pH 7.0), 100 mM NaCl, 0.005% Tween-20, and 2 mM of DTT or GSH. The reaction was incubated at about 27° C. and terminated with about 1/10 volume of 2% trifluoroacetic acid at multiple time points at 0, 2, 5, 10, 20, 30, 45, 60, 75, 90, and 120 mins. An aliquot of about 10 μl of the quenched reaction was used for detecting the substrate turnover by RapidFire (BioTrove, Woburn, Mass.) with a C4 cartridge. The reaction was loaded onto the cartridge, which was equilibrated with the stationary phase of 0.1% formic acid+0.02% TFA and developed with the mobile phase of 90% MeCN+0.1% formic acid+0.02% TFA at about 1 ml per min. The 20-mer substrate at SIM 1112 amu (atomic mass unit) and the corresponding 18-mer product at SIM 1019 were monitored using Agilent 1100 series LCMSD (Santa Clara, Calif.) in the positive ion mode monitoring.
Two fragment compounds, 2-(piperidin-1-ylcarbonyl)phenol and 2-(piperidin-1-ylcarbonyl)aniline were evaluated for their activity to modulate DPPI. A dilution series of the compounds of about 0.1 mM to about 100 mM was made in 100% DMSO. About one μl of a test compound and about 8 μl of about 3.75 nM DDP-1 were added to a 384-well polypropylene plate (Greiner Bio-One North America Inc., Monroe, N.C.). The proteolytic reaction was initiated by the addition of about 1 μl of 200 μM substrate. […] An aliquot of about 10 μl of the quenched reaction was analyzed by RapidFire™ as described in Examples 3 and 4.

[3] = molecular target: T1, dipeptidyl peptidase I (DPPI); assay: Initial velocity analysis of DPPI with the dipeptide substrate Gly-Arg-AMC, fluorescence; details: dipeptide GR-AMC as DPPI substrate, about 0.4 nM DPPI, pH 7.0
Procedure: (§2) FIG. 1. Initial velocity analysis for DPP1 kinetic constant in reaction with a 20-mer substrate (A) and a dipeptide substrate (B). (A) About 2 nM of DPPI was used in the reaction with the 20-mer substrate of […] (SEQ ID NO:1) and the reaction was monitored using a mass spectrometry system. (B) About 0.4 nM of DPP1 was used in the reaction with the dipeptide substrate of GR-α-methylcoumarin and the reaction was monitored using a rate-based format monitoring fluorescence at EM=460 nm and EX=380 nm. Initial rates are taken from kinetic data where less than 7% substrate turnover was achieved.
(§3) Once the rate of the substrate turnover under the initial velocity condition, the kinetic constants for DPPI and the peptide substrate are calculated using the following formula (I): Y=VMAX((X+Et+KM)−((((Et+X+KM)^2)−(4XEt))^0.5))/(2Et) wherein • Y is concentration of substrate turnover • X is substrate concentration • Et is DPPI concentration • KM is substrate concentration at ½ VMAX • VMAX is substrate turnover at substrate saturation
The DPPI activity was analyzed with either the dipeptide substrate, Gly-Arg, labeled with alpha-methylcoumarin (AMC), or the 20-mer peptide substrate of SEQ ID NO: 1. For the dipeptide substrate, about 0.4 nM of DPPI was incubated with about 1, 2, 5, 10, 25, 50, 100, 150, 300, 600 μM of the dipeptide substrate in 10 ul of reaction buffer of 50 mM Hepes (pH 7.0), 100 mM NaCl, 0.005% Tween-20, and 2 mM of DTT or GSH. The fluorescence (Ex=380 nm, EM=460 nm) was monitored continuously from about 0 to 10 mins, using a Safire II (Tecan, Switzerland) to determine the DPPI activity. The condition for the 20-mer peptide substrate was the same as described above.

[4] = molecular target: T1, dipeptidyl peptidase I (DPPI); assay: Initial velocity analysis of DPPI with the 20-mer substrate, mass spectrometry; details: 20-mer as DPPI substrate, about 2 nM DPPI, pH 7.0, about 27° C.
Procedure: as §2, §3
About 2 nM of DPPI was incubated with about 0.5, 1, 2, 4, 8, 16, 32, 64, 90, 128, 150 μM of the 20-mer substrate in the reaction buffer of 50 mM HEPES (pH 7.0), 100 mM NaCl, 0.005% Tween-20, and 2 mM of DTT or GSH. […]

| Molecule | effect on DPPI activity in the reaction with the dipeptide substrate [1] | IC50 [2] | effect on DPPI activity in the reaction with the 20-mer substrate [2] | 2nd order rate constant [3] | Km [3] | kcat [3] | Km [4] |
| --- | --- | --- | --- | --- | --- | --- | --- |
| Nc1ccccc1C(=O)N1CCCCC1 [2-(piperidin-1-ylcarbonyl)aniline] | neither compound, even in high concentration of 10 mM, affected the DPPI activity | ~1000 µM | modulated the DPPI activity in a concentration dependent manner | – | – | – | – |
| O=C(c1ccccc1O)N1CCCCC1 [2-(piperidin-1-ylcarbonyl)phenol] | neither compound, even in high concentration of 10 mM, affected the DPPI activity | ~100 µM | modulated the DPPI activity in a concentration dependent manner | – | – | – | – |
| Cc1cc(=O)oc2cc(NC(=O)[C@H](CCCNC(=N)N)NC(=O)CN)ccc12 [Dipeptide, Gly-Arg, labeled with alpha-methylcoumarin (AMC)] (H-Gly-Arg-{AMC}) | – | – | – | 1.48e+06 M⁻¹ s⁻¹ | 64 µM | 5667 Mmin^−1 | – |
| GEIIGGTECKPHSRPYMAYL [20-mer] | – | – | – | – | – | – | 62 µM |
